# Reference: US20250115595A1, “INHIBITORS OF HYPOXIA-INDUCIBLE FACTORS” (The Johns Hopkins University, priority 2021, published 2025)
# Columns and labels:
# Type in all cases: in vivo, mouse
# [1] = system: C57BL/6 mice; experiment: Safety after systemic (IP) dosing: fundus/angiography, ERG, tissue histology
# Procedure: Fundus photos and fluorescein angiographic images of the retina of C57BL/6 mice on day 30 following 5 daily intraperitoneal (IP) injections (day 0 to day 5) with 32-134D at 40 or 80 mg/kg compared to vehicle control (FIG. 17).
# ERG measurements taken in C57BL/6 mice at day 7 (D7) and day 14 (D14) following 5 daily IP injections (day 0 to day 5) with vehicle control (Veh) or 32-134D at 20, 40, or 80 mg/kg/day.
# To survey for possible organ damage following systemic administration, three-month-old mice were treated with the 80 mg/kg/day of 32-134D by IP injection for five consecutive days (days 0-4). On day 30, mice were sacrificed, perfused with PBS, and tissues were harvested and fixed in 4% paraformaldehyde (PFA). Harvested tissues included the brain, heart, muscle, liver, spleen, kidney, stomach, small intestine, and large intestine. Tissues were embedded with paraffin, sectioned at […], and stained with hematoxylin and eosin. Images were taken at 20× magnification.
# Flash scotopic ERGs: All procedures were performed under dim red light. Mice were dark adapted overnight, anesthetized with ketamine (50 mg/kg) and xylazine (5 mg/kg) and pupils were dilated with a topical drop of tropicamide (1%). Scotopic ERG responses were measured using the Celeris ERG stimulator (Diagnosys, Lowell, MA) at flash intensities of 0.025, 0.25, 2.5, 7.96, and 79.06 cd/s/m2. ERGs were measured simultaneously from both eyes with a ground electrode placed into the forehead between the eyes and a reference electrode into the hip.
# Fluorescein angiography in mice: To evaluate the effect of 32-134D on the retinal vasculature and vascular permeability, experimental animals were treated with 5 consecutive daily IP injections with 32-134D at 40 or 80 mg/kg. On day 30, mice were anesthetized using intramuscular injection with ketamine (50 mg/kg) and xylazine (5 mg/kg). Pupils were then dilated using 1% tropicamide eye drops and mice were placed on the imaging platform of the Phoenix Micron III retinal imaging microscope (Phoenix Research Laboratories, Pleasanton, CA). Goniovisc 2.5% (hypromellose; Sigma Pharmaceuticals, LLC, Monticello, IA) was applied liberally to keep the eye moist during imaging studies. Fundus photos were taken before administering 10 to 20 μl of 10% fluorescein sodium (Apollo Ophthalmics, Newport Beach, CA) IP injection. Rapid acquisition of fluorescein angiographic images was then performed for 5 minutes. Fluorescein leakage manifests as indistinct vascular borders progressing to diffusely hazy fluorescence. Fluorescein leakage was compared between different groups by quantifying the fluorescence intensities collected after 1, 2, and 3 minutes following fluorescein injection using ImageJ software (National Institutes of Health, Bethesda, MD).
# [2] = system: Hep3B human HCC tumor xenografts; experiment: Hep3B tumor xenograft in nude mice
# Procedure: Effects of 32-134D on Hep3B human HCC tumor xenografts. To analyze the effect of HIF inhibitor 32-134D on tumor xenograft growth, Hep3B cells were injected subcutaneously into immunodeficient mice and when tumors reached a volume of 150 mm3 (designated treatment day 1), the mice were treated with vehicle or 32-134D by daily intraperitoneal injection. […] Treatment with 32-134D for 17 days had no effect on mouse body weight (FIG. 6C), appearance or behavior. We treated additional mice with 32-134D and confirmed inhibition of tumor growth without effects on body weight (FIGS. 7A-C).
# Protocols were approved by the Johns Hopkins University Animal Care and Use Committee and used in accordance with the NIH Guide for the Care and Use of Laboratory Animals (National Research Council, 2011). Female nude mice (NCI Athymic NCr-nu/nu) and male C57L/J mice were purchased from Charles River and The Jackson Laboratory, respectively. Hep3B (8×106) and Hepa1-6 (1×107) cells were implanted subcutaneously in 6- to 8-week-old mice, and tumor volume was calculated: V=abc×0.52. For Hep3B tumor studies, once tumors reached 100-150 mm3, mice were randomized into groups to receive daily intraperitoneal injection of either vehicle or 32-134D. For Hepa1-6 tumors, mice were randomized to receive treatment once tumors reached a size of 50-100 mm3. Tumors were harvested 4 hours after the last treatment.
# Tumors were fixed in 10% formalin in phosphate buffer for 24 hours and placed in PBS the following day for paraffin embedding and sectioning. Anti-CD31 immunohistochemical staining, hematoxylin and eosin counterstaining, and whole slide scanning were performed by NDB Bio […].
# (§1) Human (EPO, SCF, SDF1a, VEGFA) and mouse (Cxcl1, Cxcl2, Cxcl9, Cxcl10, Il6, Il10, IL22, Vegfa) protein concentrations in tumor homogenates were determined using ELISA kits (Table 4) from Novus Biologicals. Optical density was obtained at 450 nm (corrected for readings at 570 nm) using the VICTOR Nivo plate reader (PerkinElmer). Sample protein concentration was calculated by linear regression from a standard curve.
# [3] = system: C57BL/6 mice; experiment: Laser CNV model, intravitreal dosing; conditions: single IVT injection 70 ng on day 3, day 7
# Procedure: To evaluate the efficacy of 32-134D following intraocular administration, the laser CNV model for neovascular (wet) age-related macular degeneration was used (FIG. 25A). C57BL/6 mice were treated with laser on day 0. On day 3, mice were treated with a single IVT injection with 32-134D (1 μl of 14 or 70 ng/μl solution) or with vehicle control. On day 7, mice were euthanized and choroidal flat mounts were stained with isolectin B4 to examine the area of CNV.
# Intraocular injections: Intravitreal injections were performed with a PLI-100A Pico-liter Microinjector (Warner Instruments, Harvard Bioscience) using pulled-glass micropipettes. Each micropipette was calibrated to deliver a 1 μl volume on depression of a foot switch. The mice were anesthetized with a ketamine (100 mg/kg) and xylazine (5 mg/kg) mixture, and under a dissecting microscope, the sharpened tip of the micropipette was passed through the sclera just posterior to the limbus into the vitreous cavity and the foot switch was depressed, which caused fluid to penetrate into the vitreous space. Test compound was injected into the vitreous cavity in OIR and STZ mice for vascular permeability test, retinal vasculature and lysates for WB and qPCR analysis.
# [4] = system: intratumoral gene expression; experiment: RT-qPCR and ELISA of Hepa1-6 tumor tissue
# Procedure: RNA was extracted using TRIzol Reagent (ThermoFisher). Quantitative Real-time PCR was conducted using SYBR Green PCR Master Mix (BioRad) and reactions were run using the BioRad thermal cycler (BioRad). The mRNA expression of target genes was normalized to the expression of 18S rRNA and the fold change (FC) was calculated based on the threshold cycle (Ct) as
# as §1
# [5] = 5 daily IP injections 20, 40 or 80 mg/kg/day, D7 and D14
structure (smiles),measurement,setting,value
"Brc1ccc2c(-c3csc(-c4c[nH]c5c(Br)cccc45)n3)c[nH]c2c1 [Compound 32-134D, 4-(6-bromo-1H-indol-3-yl)-2-(7-bromo-1H-indol-3-yl)thiazole]","tissue histology (brain, heart, muscle, liver, spleen, kidney, stomach, intestines)","[1]; 80 mg/kg/day IP for five days, day 30",no evidence of toxicity
same,ERG a-wave versus vehicle,[1]; [5],no statistically significant difference
same,ERG b-wave versus vehicle,[1]; [5],no statistically significant difference
same,fundus photos and fluorescein angiography of retina,"[1]; 5 daily IP injections 40 or 80 mg/kg, day 30",intact retinal vasculature and absence of capillary leakage
same,tumor xenograft growth,[2]; 20 mg/kg daily intraperitoneal,Partial growth inhibition
same,tumor xenograft growth,[2]; 40 mg/kg daily intraperitoneal,maximal growth inhibition
same,mass of tumors harvested,[2]; 40 mg/kg/day,significantly decreased
same,tumor xenograft growth,[2]; 80 mg/kg daily intraperitoneal,maximal growth inhibition
same,blood vessel area in tumors (CD31 immunohistochemistry),"[2]; mouse, in vivo",markedly decreased
same,mouse body weight,[2]; treatment for 17 days,no effect
same,"tumor mRNAs encoding SCF, PGF, EPO, CD73, PDL1, VEGFA, SDF1","[2]; tumor RNA, RT-qPCR",significant decrease
same,"EPO, SCF, SDF1 and VEGFA protein in tumors","[2]; whole tumor lysates, ELISA",significantly decreased expression
same,CNV area,[3],significant decrease
same,tumor mRNAs encoding angiogenic factors and proteins mediating immunosuppression,"[4]; Angpt14, Epo, Pgf, Vegfa, B7h4, Cd47, Cd70, Cd73, Glut1, Ldha, Pdl1, Tim3, RT-qPCR",significantly decreased
same,"Cxcl1, Il10 and Vegfa protein levels in tumors",[4]; ELISA on tumor lysates,significantly decreased levels
same,Cxcl9 and Cxcl10 protein levels in tumors,[4]; ELISA on tumor lysates,significantly increased levels
same,tumor expression of Cxcl9 and Cxcl10 mRNA,[4]; RT-qPCR,increased
same,"Cxcl1, Il6 and Il10 mRNA levels in tumor tissue","[4]; mouse, in vivo",decreased
same,IL22 mRNA and protein expression in Hepa1-6 tumors,"[4]; mouse, in vivo",inhibited
